For series [1] the following is noted: in words; cited from earlier work.
Series [2] in a line: loading concentration of saturated active ingredient solution in penetration accelerator. It counts as physicochemical. The settings on record: for loading concentration in dimethyl isosorbide: dimethyl isosorbide as penetration accelerator; for loading concentration of saturated solution in DMEU: donor volume 150 μl. As to the method:
The following test series with the various penetration accelerators and for the selected active ingredients were carried out in the context of a typical in vitro permeation using Franz diffusion cells. The used acceptor medium was replaced completely for a new one at predetermined replacement times, and the content of permeated active ingredient amount in these acceptor solutions was determined by means of HPLC.

In the case of `COc1cc(/C=C/C(=O)CC(=O)/C=C/c2ccc(O)c(OC)c2)ccc1O` [Curcumin], the water solubility entry in series [1] is recorded as “almost insoluble in water”. For the same compound, in series [2], the “loading concentration in dimethyl isosorbide” value is reported as 1.29 mg/cm^2 and the “loading concentration of saturated solution in DMEU” value is given as 12.75 mg/cm^2.

Take `CCOC(=O)C1=C(C)NC(C)=C(C(=O)OC)C1c1cccc(Cl)c1Cl` (stereo not drawn) [Felodipine]: the water solubility result in series [1] is given as “almost insoluble in water”.

As for `Cc1cc2c(s1)Nc1ccccc1N=C2N1CCN(C)CC1` [Olanzapine], the water solubility entry in series [1] was “almost insoluble in water”.

In the case of `CC(=O)[C@H]1CC[C@H]2[C@@H]3CCC4=CC(=O)CC[C@]4(C)[C@H]3CC[C@]12C` [Progesterone], the water solubility entry in series [1] is recorded as “almost insoluble in water”. In series [2], the “loading concentration in dimethyl isosorbide” value turned out to be 6.4 mg/cm^2 and the “loading concentration of saturated solution in DMEU” value was determined as 27.7 mg/cm^2. Besides, the “loading concentration in dipropylene glycol” value in series [2] (dipropylene glycol as penetration accelerator) is recorded as 2.1 mg/cm^2.

(Values after patent publication US20230104692A1, “DMEU ENHANCER” (priority 2020, published 2023).)
